The target of test [1] is T1, EphA2 (Homo sapiens, UniProt P29317). Kind of test: Phosphorylated-EphA2 sandwich ELISA in PC3 cell lysates. The format is cell-based. Further details: their known ability to naturally express EphA2; endogenous in cells; host or cells: PC3 (A5). Conditions: PC3 cells, 100 µM. Here is the method: (§1) Cells were seeded in 12-well plates at concentration of 10^5cells/ml in complete medium until they reached ∼40% confluence and serum starved overnight. The day after cells were treated with compounds under study, vehicle or standard drug, stimulated with the proper agonist, rinsed with sterile PBS and solubilized in lysis buffer. The lysates were resuspended and rocked at 4°C for 30 minutes and then centrifuged at 14000 xg for 5 minutes. The protein content of supernatant was measured with BCA protein assay kit (Thermo scientific), standardized to 200 µg/ml and transferred into a clean test tube ready to be used.
(§2) EphA2-, EphB4- and EGFR-phosphorylation were measured in cell lysates using DuoSet®IC Sandwich ELISA (RnD Systems, #DYC4056, #DYC4057 and #DYC1095, respectively) following manufacturer's protocol. […] The day after wells were washed and blocked for 1 hour at room temperature. After that, wells were washed and 100 µl/well of lysates were added at room temperature for 2 hours; wells were washed and incubated with Detection Antibody at room temperature for 2 hours.
(§3) EphB4 phosphorylation was stimulated with 3 µg/ml ephrinB2-Fc, preclustered with 0.3 µg/ml IgG Fc fragment on T47D cells (G, H, I). […] Phospho-EphA2/B4 levels are relative to ephrinA1/B2-Fc+DMSO. Data are the means of at least three independent experiment ± st. err. One-way ANOVA followed by Dunnet's post test was performed comparing Fc to all other columns for Fig A, D, G and ephrinA1-Fc+DMSO to all other columns for Fig B,C,E, F, H, I. *, p<0.05, **, p<0.01.
(An ELISA detects its analyte on a solid surface through an enzyme-linked reagent.)

Test [2] concerns the target T2, EphA2-ephrinA1 binding (Mus musculus, UniProt Q03145).
T2 construct: we immobilized EphA2-Fc- ectodomain on proper ELISA plates; purchased R&D systems 639-A2 (EphA2-Fc); BT602 (biotinylated ephrinA1-Fc)
The test is described as follows: ELISA EphA2-ephrinA1 binding (displacement and saturation). The settings on record: for decrease of EphA2-ephrinA1 binding: bile acids, repeat of the 200 µM experiment. Here is the method:
Our chemical collection (Table S1) was stocked in a 20 mM dimethyl sulfoxide (DMSO) solution and we performed binding assay at a concentration of 200 µM. Only compounds displacing more than 40% ephrinA1 from EphA2 receptor were considered for a full concentration-binding curve. […] The day after wells were washed three times with washing buffer (PBS +0.05% tween20, pH 7.5) and blocked with 300 µl of blocking solution (PBS +0.5% BSA) for 1 hour at 37°C. Compounds were added to the wells at proper concentration in 1% dimethyl sulfoxide (DMSO) and incubated at 37°C for 1 hour. Biotinylated ephrinA1-Fc (R&D BT602) was added at 37°C for 4 hours at 30 ng/ml in displacement assays or in a range from 1 to 2000 ng/ml in saturation studies. […] The reaction was stopped with 3N HCl 100 µl/well and the absorbance was measured using an ELISA plate reader (Sunrise, TECAN, Switzerland) at 450 nm.
The IC50 value was determined using one-site competition non-linear regression and Kd values of the curves with or without antagonists were calculated using one-binding site non-linear regression analysis with Prism software (GraphPad Software Inc.). The Ki was obtained using Schild plot where Log[DR-1] is a function of the negative Log10 of the inhibitor concentration. The Hill's coefficient was calculated using linear fitting to evaluate whether the inhibition was competitive or uncompetitive.
To identify compounds interfering with EphA2-ephrinA1 binding we immobilized EphA2-Fc- ectodomain on proper ELISA plates and binding of biotinylated-ephrin-A1-Fc was detected using the colorimetric reaction developed by streptavidine-HRP and tetramethylbenzidine.

Test [3] has as its target T1, EphA2. The test is described as follows: Phosphorylated-EphA2 sandwich ELISA in HT29 cell lysates. The format is cell-based. Set-up: their known ability to naturally express EphA2; endogenous in cells; host or cells: HT29 (A6). The settings on record: HT29 cells, 100 µM. Here is the method:
as §1, §2, §3

From article PMC3068151 (PLoS ONE, 2011) come the findings set out here.

T2 sequence (Q03145 26-538 limits assumed): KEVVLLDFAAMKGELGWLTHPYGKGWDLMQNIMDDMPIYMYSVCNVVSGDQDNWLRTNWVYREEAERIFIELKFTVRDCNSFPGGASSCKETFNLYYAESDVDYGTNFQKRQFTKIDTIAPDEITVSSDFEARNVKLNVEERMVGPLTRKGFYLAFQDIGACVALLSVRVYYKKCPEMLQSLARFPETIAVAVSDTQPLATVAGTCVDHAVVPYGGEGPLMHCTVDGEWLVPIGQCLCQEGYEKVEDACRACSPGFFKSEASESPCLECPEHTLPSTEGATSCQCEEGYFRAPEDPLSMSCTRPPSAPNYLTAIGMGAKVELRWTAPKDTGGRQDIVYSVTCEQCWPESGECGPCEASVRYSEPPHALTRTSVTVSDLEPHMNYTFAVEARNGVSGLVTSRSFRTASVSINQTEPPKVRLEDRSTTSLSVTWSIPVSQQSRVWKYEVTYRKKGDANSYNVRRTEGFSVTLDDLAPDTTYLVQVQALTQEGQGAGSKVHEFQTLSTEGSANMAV
T1 sequence (P29317 24-976): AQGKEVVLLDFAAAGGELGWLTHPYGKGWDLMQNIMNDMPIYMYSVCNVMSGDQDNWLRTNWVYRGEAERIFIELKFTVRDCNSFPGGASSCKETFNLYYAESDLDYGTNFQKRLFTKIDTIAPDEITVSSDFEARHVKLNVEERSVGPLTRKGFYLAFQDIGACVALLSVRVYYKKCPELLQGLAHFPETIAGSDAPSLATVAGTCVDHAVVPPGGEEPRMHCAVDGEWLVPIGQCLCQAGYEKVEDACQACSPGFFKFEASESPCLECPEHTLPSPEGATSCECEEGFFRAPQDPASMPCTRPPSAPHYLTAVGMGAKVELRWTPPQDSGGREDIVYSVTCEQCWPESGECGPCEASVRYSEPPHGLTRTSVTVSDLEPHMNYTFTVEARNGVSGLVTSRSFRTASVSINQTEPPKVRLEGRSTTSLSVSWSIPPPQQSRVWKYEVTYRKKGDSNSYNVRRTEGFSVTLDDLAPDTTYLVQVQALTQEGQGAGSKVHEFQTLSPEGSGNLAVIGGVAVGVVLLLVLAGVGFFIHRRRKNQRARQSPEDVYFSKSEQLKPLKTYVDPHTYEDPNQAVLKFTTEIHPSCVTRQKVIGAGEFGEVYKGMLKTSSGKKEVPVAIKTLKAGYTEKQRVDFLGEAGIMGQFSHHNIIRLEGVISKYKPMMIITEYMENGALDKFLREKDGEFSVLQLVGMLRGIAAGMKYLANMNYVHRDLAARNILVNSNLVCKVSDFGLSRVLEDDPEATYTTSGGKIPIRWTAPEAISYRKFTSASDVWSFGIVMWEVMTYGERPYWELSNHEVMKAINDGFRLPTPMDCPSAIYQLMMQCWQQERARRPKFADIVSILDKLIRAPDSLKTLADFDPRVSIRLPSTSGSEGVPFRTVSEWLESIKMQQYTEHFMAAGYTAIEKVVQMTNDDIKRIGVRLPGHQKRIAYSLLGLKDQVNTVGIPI

For the molecule `C[C@H](CCC(=O)O)[C@H]1CC[C@H]2[C@@H]3[C@H](O)C[C@@H]4C[C@H](O)CC[C@]4(C)[C@H]3CC[C@]12C` [CDCA, chenodeoxycholic], the “effect on Eph kinase phosphorylation as agonist or antagonist” value (“effect on Eph kinase phosphorylation” below) in test [1] and in test [3] was “inactive” in each case. In addition, the “decrease of EphA2-ephrinA1 binding” value in test [2] is on record as “did not displaced”.
As to `C[C@H](CCC(=O)O)[C@H]1CC[C@H]2[C@@H]3CC[C@@H]4C[C@H](O)CC[C@]4(C)[C@H]3C[C@H](O)[C@]12C` [DCA, deoxycholic], the “effect on Eph kinase phosphorylation” value in test [1] and in test [3] was “inactive” each time. The “decrease of EphA2-ephrinA1 binding” value in test [2] is given as “did not displaced”.
In the case of `C[C@H](CCC(=O)O)[C@H]1CC[C@H]2[C@@H]3[C@H](O)C[C@@H]4C[C@H](O)CC[C@]4(C)[C@H]3C[C@H](O)[C@]12C` [CA, cholic], the “effect on Eph kinase phosphorylation” value in test [1] and in test [3] was “inactive” each time. Moreover, the “decrease of EphA2-ephrinA1 binding” value in test [2] was “did not displaced”.

B1: ephrinA1-Fc: recombinant ephrinA1-Fc protein, ligand of the EphA2-Fc receptor (protein)
chain: DRHIVFWNSSNPKFREEDYTVHVQLNDYLDIICPHYEDDSVADAAMERYTLYMVEHQEYVACQPQSKDQVRWNCNRPSAKHGPEKLSEKFQRFTPFILGKEFKEGHSYYYISKPIYHQESQCLKLKVTVNGKITHNPQAHVNPQEKRLQADDPEVQVLHSIGYS
modifications: Ectodomain only, with the C-terminal IgG Fc carrier omitted; The Fc chimera is a disulfide-linked dimer; Limits follow the mature ectodomain without the signal peptide and GPI propeptide, by supplier
In the case of B1, the “Ki of EphA2-biotinylated-ephrin-A1 binding inhibition” value in test [2] (assay validation, Figure S1) was 0.102 µg/mL.
